US20230067159A1, “ROR-GAMMA-T INHIBITOR, PREPARATION METHOD THEREOF AND USE THEREOF” (priority 2020, published 2023)

Tests used:
[1] = Stability in human liver microsomes; format: in vitro ADME; conditions: pH 7.4; for half-life at 1.5 μM: human liver microsomes 0.5 mg protein/mL, compound 1.5 μM, NADPH, 37° C., read-out: Half-life t1/2; for CLint scaled at 1.5 μM: human liver microsomes, inferred in vivo intrinsic hepatic clearance rate
Experimental: (§1) Biological Example 4 Stability of the Compounds of the Present Invention in Human and Rat Liver Microsomes
(§2) Human or rat liver microsomes were incubated in double wells in polypropylene tubes. A typical incubation mixture included human or rat liver microsomes (final concentration: 0.5 mg protein/mL), target compound (final concentration: 1.5 μM), and K-phosphate buffered solution (containing […] EDTA, 100 mM, pH=7.4) in a total volume of 30 μL. Compounds were dissolved in DMSO and diluted with K-phosphate buffered solution to give a final working solution concentration of 30 μM. After 10 min of pre-incubation, 25 μL of test compound or positive control solution was transferred to the microsomal solution. The mixture was mixed well and 30 μL of the mixture was immediately pipetted, ice-cold acetonitrile was added, then 15 μL of NADPH was added as T0. 15 μL of NADPH (final concentration: 2 mM) was added to 30 μL of the mixture for the enzymatic reaction, and the entire experiment was carried out in an incubation tube at 37° C. At various time points (0, 20 and 60 min), the reaction was stopped by adding 150 μL of acetonitrile (with internal standard). The protein was removed by centrifugation at 4000 rpm for 10 min, and the supernatant was collected and analyzed by LC-MS/MS.
(§3) For each reaction, the concentration of compound in the incubation of human or rat liver microsomes was plotted (expressed as a percentage) as a percentage relative to the zero time point to infer in vitro metabolic half-life and in vivo intrinsic hepatic clearance rate.

RORγ = biological target: T1, RORγ (Homo sapiens, UniProt P51449); experiment: Fluorescence resonance energy transfer (FRET) test, B-RORγ LBD / Biotin-SRC1; format: biochemical
T1 construct: The concentration of B-RORγ LBD was 40 nM
T1 sequence (P51449 269-508 limits assumed): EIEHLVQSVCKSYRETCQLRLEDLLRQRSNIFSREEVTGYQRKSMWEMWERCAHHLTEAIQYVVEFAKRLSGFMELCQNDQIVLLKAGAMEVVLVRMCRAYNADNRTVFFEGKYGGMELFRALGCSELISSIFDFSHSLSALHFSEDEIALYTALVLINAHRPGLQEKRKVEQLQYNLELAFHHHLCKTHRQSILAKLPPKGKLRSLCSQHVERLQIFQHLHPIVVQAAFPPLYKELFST
Experimental: Biological Example 1 Fluorescence Resonance Energy Transfer (FRET) Test
(1) Preparation of RORγ Test Buffer and 10 mM of DTT
100 mL of 1× Basic test buffer (HEPES (pH 7.4), 100 mM NaCl, 0.01% BSA) was prepared, and 154.25 mg of DTT was added. The mixture was well mixed.
(2) Preparation of Compound with Gradient Concentration
a. Standard compound was prepared: Standard compound was diluted with 100% DMSO to 2.5 mM, then diluted 3-fold with 11 serial dilutions to a final concentration of […];
b. Test compound was prepared referring to the standard compound.
(3) Preparation of 1× Protein Solution Mixture
(§4) a. Preparation of the desired amount of 2× B-RORγ LBD/SA-APC protein mixture: The concentration of B-RORγ LBD was 40 nM, and the concentration of SA-APC was 20 nM. They were mixed by gently inversion, and incubated at room temperature for 15 minutes. Then 400 nM of biotin was added. The mixture was mixed by gently inversion, and incubated at room temperature for 10 minutes;
as §4, with “b.” for “a.”, “Biotin-SRC1/SA-eu” for “B-RORγ LBD/SA-APC”, “Bioin-SRC1” for “B-RORγ LBD”, “SA-eu” for “SA-APC”, “200” for “400”
c. The protein mixtures prepared in step a and step b were mixed at a ratio of 1:1, and incubated at room temperature for 5 minutes;
d. 25 μL of the mixture from step c was added to the 384-well plate containing the test compound;
e. The mixture was centrifuged at 1000 rpm for one minute;
f. The mixture was incubated for 1 hour at room temperature.
(4) Data Collection and Calculation
After incubation at room temperature for 1 hour, the fluorescence values at 665 nm and 615 nm were measured with an EnVision plate reader, and the inhibition rate was calculated.
Inhibition rate %)=[(X−Min)/(Max−Min)]×100%
X is the fluorescence value ratio of “665/615” of the test compound; Min is the average value of “665/615” of the DMSO blank control; Max is the average value of “665/615” of the 10 μM SRC.

[2] = Stability in rat liver microsomes; format: in vitro ADME; conditions: pH 7.4; for half-life at 1.5 μM: rat liver microsomes 0.5 mg protein/mL, compound 1.5 μM, NADPH, 37° C., read-out: Half-life t1/2; for CLint scaled at 1.5 μM: rat liver microsomes, inferred in vivo intrinsic hepatic clearance rate
Experimental: as §1, §2, §3

[3] = Pharmacokinetic evaluation I in ICR mice; format: in vivo; conditions: mouse, plasma, po; for bioavailability: p.o. 5 mg/kg, i.v. 1 mg/kg, read-out: Oral bioavailability (F); for AUC(0-t) / Cmax / half-life: 5 mg/kg
Experimental: Biological Example 2 Pharmacokinetic Evaluation I
ICR mice were weighed after an overnight fast for 15 h, and then randomly divided into groups according to body weight. The test compounds were formulated in a vehicle of 10% DMSO 10% kolliphor HS15^+ 80% Saline. For the test group administered intravenously (indicated by i.v.), the test animals were administered a dose of 1 mg/kg; for the test group administered by oral administration (indicated by p.o.), the test animals were administered a dose of 5 mg/kg. Then, at time points 0, 0.083 (intravenous injection group only), 0.25, 0.5, 1.0, 2.0, 5.0, 7.0 and 24 h, venous blood (approximately 0.2 mL) was collected and placed in an EDTAK2 anticoagulation tube, then centrifuged at 11,000 rpm for 2 min. Plasma was collected and stored at −20° C. or −70° C. until LC/MS/MS analysis. The drug concentration in plasma was measured at each time point, and the pharmacokinetic parameters were calculated according to the drug concentration-time curve.

Structure (SMILES): CCS(=O)(=O)c1ccc([C@H](CO)NC(=O)c2ccc(N3C[C@@H](Oc4ccc(C(F)(F)F)cc4)C[C@H]3COC(F)F)cc2)cc1 [Example 39]
- half-life at 1.5 μM [1]: 3.53 h
- CLint scaled at 1.5 μM [1]: 8.2 mL/min/kg
- IC50 (RORγ): 3 nM
- half-life at 1.5 μM [2]: 5.62 h
- CLint scaled at 1.5 μM [2]: 7.4 mL/min/kg
- bioavailability [3]: 35%
- AUC(0-t) [3]: 11.4 µM·h
- Cmax [3]: 1500 nM
- half-life [3]: 3.9 h

Structure (SMILES): CCS(=O)(=O)c1ccc([C@H](CO)NC(=O)c2ccc(N3C[C@@H](Oc4ccc(C(F)(F)F)cc4)C[C@H]3COC(F)(F)F)cc2)cc1 [Example 48, N—((R)-1-(4-(ethylsulfonyl)phenyl)-2-hydroxyethyl)-4-((2S,4S)-2-((trifluoromethoxy)methyl)-4-(4-(trifluoromethyl)phenoxy)pyrrolidin-1-yl)benzamide]
- half-life at 1.5 μM [1]: 10 h
- CLint scaled at 1.5 μM [1]: 2.9 mL/min/kg
- IC50 (RORγ): 6.4 nM
- bioavailability [3]: 50%
- AUC(0-t) [3]: 20.9 µM·h
- Cmax [3]: 1700 nM
- half-life [3]: 11.4 h

Structure (SMILES): CCS(=O)(=O)c1ccc([C@H](CCO)NC(=O)c2ccc(N3C[C@@H](Oc4ccc(C(F)(F)F)cc4)C[C@H]3COC(F)F)cc2)cc1 [Example 91]
- half-life at 1.5 μM [1]: 6.93 h
- CLint scaled at 1.5 μM [1]: 4.2 mL/min/kg
- half-life at 1.5 μM [2]: 2.37 h
- CLint scaled at 1.5 μM [2]: 38 mL/min/kg
- bioavailability [3]: 42%
- AUC(0-t) [3]: 21 µM·h
- Cmax [3]: 1900 nM
- half-life [3]: 7.6 h

Structure (SMILES): CCS(=O)(=O)c1ccc([C@H](CCO)NC(=O)c2ccc(N3C[C@@H](Oc4ccc(OC(F)(F)F)cn4)C[C@H]3COC(F)F)cc2)cc1 [Example 108]
- IC50 (RORγ): 6 nM

Structure (SMILES): [2H]C([2H])([2H])OC[C@@H]1C[C@H](Oc2ccc(C(F)(F)F)cc2)CN1c1ccc(C(=O)NCc2ccc(S(=O)(=O)CC)cc2)cc1 [Example 109, N-(4-(ethylsulfonyl)benzyl)-4-((2S,4S)-2-(3,3,3-d3-methoxymethyl)-4-(4-(trifluoromethyl)phenoxy)pyrrolidin-1-yl)benzamide]
- IC50 (RORγ): 6.4 nM

Structure (SMILES): CCS(=O)(=O)c1ccc(CNC(=O)c2ccc(N3C[C@@H](Oc4ccc(OC(F)(F)F)cn4)C[C@H]3COC(F)F)nc2)cc1 [Example 110]
- IC50 (RORγ): 11 nM

Structure (SMILES): CCS(=O)(=O)c1ccc(CNC(=O)c2cnc(N3C[C@@H](Oc4ccc(OC(F)(F)F)cn4)C[C@H]3COC(F)F)c(F)c2)cc1 [Example 111]
- IC50 (RORγ): 5 nM

Structure (SMILES): CCS(=O)(=O)c1ccc(CNC(=O)c2ccc(N3C[C@@H](Oc4ccc(OC(F)(F)F)cn4)C[C@H]3COC(F)F)cc2)nc1 [Example 112]
- IC50 (RORγ): 8 nM

Structure (SMILES): CCS(=O)(=O)c1ccc(CNC(=O)c2cnc(N3C[C@@H](Oc4ccc(Cl)cn4)C[C@H]3COC(F)F)c(F)c2)nc1 [Example 113, 6-((2S,4S)-4-((5-chloropyridin-2-yl)oxy)-2-((difluoromethoxy)methyl)pyrrolidin-1-yl)-N-((5-(ethylsulfonyl)pyridin-2-yl)methyl)-5-fluoronicotinamide]
- IC50 (RORγ): 6.2 nM

Structure (SMILES): CCS(=O)(=O)c1ccc([C@H](CCO)NC(=O)c2ccc(N3C[C@H](Oc4ccc(OC(F)(F)F)cc4)C[C@H]3COC(F)F)nc2)cc1 [Example 115]
- IC50 (RORγ): 13 nM

Structure (SMILES): CCS(=O)(=O)c1ccc([C@H](CCO)NC(=O)c2cnc(N3C[C@@H](Oc4ccc(OC(F)(F)F)cc4)C[C@H]3COC(F)F)c(F)c2)cc1 [Example 116]
- IC50 (RORγ): 10 nM

Structure (SMILES): CCS(=O)(=O)c1ccc([C@H](CCO)NC(=O)c2ccc(N3C[C@@H](Oc4ccc(OC(F)(F)F)cc4)C[C@H]3CF)cc2)cc1 [Example 117, N—((S)-1-(4-(ethylsulfonyl)phenyl)-3-hydroxypropyl)-4-((2S,4S)-2-(fluoromethyl)-4-(4-(trifluoromethoxy)phenoxy)pyrrolidin-1-yl)benzamide]
- IC50 (RORγ): 14 nM
- half-life at 1.5 μM [2]: 6.12 h
- CLint scaled at 1.5 μM [2]: 3.8 mL/min/kg

Structure (SMILES): CCS(=O)(=O)c1ccc([C@H](CCO)NC(=O)c2ccc(N3C[C@@H](Oc4ccc(OC(F)(F)F)cc4)C[C@H]3COC(F)F)cc2)cc1 [Example 119, 4-((2S,4S)-2-((difluoromethoxy)methyl)-4-(4-(trifluoromethoxy)phenoxy)pyrrolidin-1-yl)-N—((S)-1-(4-(ethylsulfonyl)phenyl)-3-hydroxypropyl)benzamide]
- half-life at 1.5 μM [1]: 5.25 h
- CLint scaled at 1.5 μM [1]: 4.4 mL/min/kg
- IC50 (RORγ): 9.2 nM
- half-life at 1.5 μM [2]: 7.17 h
- CLint scaled at 1.5 μM [2]: 3.2 mL/min/kg
- bioavailability [3]: 71%
- AUC(0-t) [3]: 28.5 µM·h
- Cmax [3]: 2380 nM
- half-life [3]: 6.5 h

Structure (SMILES): CCS(=O)(=O)c1ccc([C@H](CCOP(=O)(O)O)NC(=O)c2ccc(N3C[C@@H](Oc4ccc(OC(F)(F)F)cc4)C[C@H]3COC(F)F)cc2)cc1 [Example 125, sodium (S)-3-(4-((2S,4S)-2-((difluoromethoxy)methyl)-4-(4-(trifluoromethoxy)phenoxy)pyrrolidin-1-yl)benzamino)-3-(4-(ethylsulfonyl)phenyl)propyl phosphate]
- IC50 (RORγ): 140 nM
